Test results: patent US20200256860A1, “PRINTABLE HYDROGELS FOR BIOMOLECULE IMMOBILIZATION AND STABILIZATION” (priority 2019, published 2020)

Tests used:
proteinase K = proteinase K (Parengyodontium album, UniProt P06873); experiment: Protease protection studies; assay type: physicochemical; conditions: 2 hours
Description: 10 μL of a 2 mg/mL proteinase K solution (prepared in 10 mM PBS and 1 mM CaCl2) was pipetted onto the printed enzyme samples both with and without hydrogel encapsulation. The samples were incubated in a closed container for 2 hours at room temperature, after which substrate solutions were pipetted onto the treated samples at the volumes listed in Table 1. Image acquisition and analysis was performed as described for the entrapment studies. The intensity of each sample was measured and presented as a ratio of the corresponding control image (untreated with protease).

[1] = Long-term stability studies (storage at room temperature); assay type: physicochemical; conditions: hydrogel-entrapped enzyme, at least three months
Description: Printed enzyme samples were stored in a closed, dark container at room temperature for time periods ranging from 7 days up to 3 months. Image acquisition and analysis was performed as described previously for the entrapment and proteinase K degradation studies. The intensity of each sample was measured and presented as a ratio of the corresponding control image (freshly printed).

TEM-1 β-lactamase [2] = target: T1, TEM-1 β-lactamase (Escherichia coli, UniProt P62593); assay type: biochemical; conditions: promiscuous aggregating inhibitors, printed hydrogel array, starting concentration 100 μM
T1 sequence (P62593 24-286 limits assumed): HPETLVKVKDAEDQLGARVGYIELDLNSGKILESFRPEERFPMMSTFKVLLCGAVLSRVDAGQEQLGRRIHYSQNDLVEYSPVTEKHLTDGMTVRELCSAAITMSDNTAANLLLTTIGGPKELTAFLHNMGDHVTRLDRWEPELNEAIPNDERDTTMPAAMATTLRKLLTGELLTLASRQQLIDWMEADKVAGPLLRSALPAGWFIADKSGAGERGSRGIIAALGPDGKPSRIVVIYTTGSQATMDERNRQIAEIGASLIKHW
Description: Images were taken with a Canon DSLR camera (operated in manual focus mode without flash) after 25 min. […] Extracted images were inverted and converted to 8 bit grayscale images. […] Calculation of IC50 values was carried out in OriginPro by plotting the calculated percentage inhibition against the added inhibitor concentration.
Intensity distributions are measured using dynamic light scattering (normalized to maximum intensity).

TEM-1 β-lactamase [3] = target: T1, TEM-1 β-lactamase; assay type: biochemical; conditions: promiscuous aggregating inhibitors
[4] = Aggregate size and polydispersity by dynamic light scattering; assay type: physicochemical; conditions: 100 μM solutions, DLS
Description: Following, to assess the capacity of the printed hydrogels to differentiate between specific and non-specific inhibition, the confirmed promiscuous inhibitors rottlerin and BIS IX (both kinase inhibitors) and tetraiodophenolphthalein (TIPT, another established aggregate forming compound) were tested against TEM-1 β-lactamase (an isoform of β-lactamase) both in solution (modeling a conventional microplate assay) and using a printed hydrogel array. […] In this way, the size selectivity of the printed hydrogel layer excludes the promiscuous inhibitors from accessing the enzyme encapsulated in the hydrogel and thus avoids the false positive hits observed in solution assays. […] Intensity distributions are measured using dynamic light scattering (normalized to maximum intensity).

proteinase K, sequence (P06873 106-384, species assumed): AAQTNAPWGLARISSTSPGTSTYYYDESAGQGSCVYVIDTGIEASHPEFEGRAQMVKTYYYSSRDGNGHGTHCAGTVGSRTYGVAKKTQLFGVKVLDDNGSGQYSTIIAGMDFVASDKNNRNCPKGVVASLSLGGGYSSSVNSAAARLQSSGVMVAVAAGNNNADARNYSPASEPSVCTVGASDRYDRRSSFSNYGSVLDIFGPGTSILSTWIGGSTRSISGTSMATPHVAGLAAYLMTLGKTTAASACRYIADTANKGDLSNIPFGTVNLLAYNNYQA

Row | Molecule | Activity retained after proteinase K (proteinase K; enzyme printed directly on nitrocellulose without hydrogel (printed alone)) | Activity retained after proteinase K (proteinase K; enzyme printed with POH in the absence of gel formation) | Activity retained after storage [1] | Inhibition of β-lactamase in the hydrogel-based assay (TEM-1 β-lactamase [2]) | Inhibition of β-lactamase in the solution-based assay (TEM-1 β-lactamase [3]) | Aggregate size [4] | Polydispersity [4]
1 | alkaline phosphatase | ~40% | > 80% | ~100% | – | – | – | –
2 | CC(=O)c1c(O)c(C)c(O)c(Cc2c(O)c3c(c(C(=O)/C=C/c4ccccc4)c2O)OC(C)(C)C=C3)c1O [Rottlerin, rottlerin] | – | – | – | no specific inhibition | inhibited β-lactamase | 188 ± 1 nm | 0.24 ± 0.01
3 | Cn1cc(C2=C(c3cn(CCCSC(=N)N)c4ccccc34)C(=O)NC2=O)c2ccccc21 [BIS IX] | – | – | – | no specific inhibition | inhibited β-lactamase | 365 ± 9 nm | 0.36 ± 0.02
